Common to all, as to format: cell-based
The test system of experiment [1] is human hepatocellular carcinoma cell line SNU398. Put plainly: Inhibition of cell proliferation (GI50) in SNU398 cells. Particulars: SNU-398, Table IV, read-out: GI50 in Multi-Cancer Cells SNU398. The procedure: (§1) Human breast cancer cell lines T-47D, MX-1 and MDAMB435, human colon cancer cell line HT29, and human lung cancer cell line H1299 were grown and harvested as in Example 75. An aliquot of […] of cells (4.4×10^4 cells/mL) was added to a well of a 96-well microtiter plate containing 5 μL of a 10% DMSO in RPMI-1640 media solution containing 10 nM to 100 μM of N-(2,5-dimethoxyphenyl)-2-methylthieno[3,2-d]pyrimidin-4-amine (1 nM to 10 μM final). An aliquot of 45 μL of cells was added to a well of a 96-well microtiter plate containing 5 μL of a 10% DMSO in RPMI-1640 media solution without compound as the control sample for maximal cell proliferation (Lmax). The samples were mixed by agitation and then incubated at 37° C. for 48 h in a 5% CO2-95% humidity incubator. After incubation, the samples were removed from the incubator and 25 μL of CellTiter-Glo™ reagent (Promega) was added. The samples were mixed by agitation and incubated at room temperature for 10-15 min. Plates were then read using a luminescent plate reader (Model SPECTRAfluor Plus, Tecan) to give Ltest values.
(§2) Baseline for GI50 (dose for 50% inhibition of cell proliferation) of initial cell numbers was determined by adding an aliquot of 45 μL of cells or 45 μL of media, respectively, to wells of a 96-well microtiter plate containing 5 μL of a 10% DMSO in RPMI-1640 media solution. The samples were mixed by agitation and then incubated at 37° C. for 0.5 h in a 5% CO2-95% humidity incubator. After incubation, the samples were removed from the incubator and 25 μL of CellTiter-Glo™ reagent (Promega) was added. The samples were mixed by agitation and incubated at 37° C. for 10-15 min at room temperature in a 5% CO2-95% humidity incubator. Fluorescence was read as above, (LStart) defining luminescence for initial cell number used as baseline in GI50 determinations.
(§3) GI50 (dose for 50% inhibition of cell proliferation) is the concentration where [(LTest−Lstart)/(LMax−Lstart)]=0.5.
(§4) Several compounds were tested in multi cancer cell lines, including human breast cancer cell lines T-47D, MX-1, SKBR3 and MDAMB435, human hepatocellular carcinoma cell line SNU398, human colon carcinoma cell line HCT116, human sarcoma cell line MES-SA and multi-drug resistant (MDR) human sarcoma cell line MES-SA/ADR, murine leukemia cell line P388 and multi-drug resistant (MDR) murine leukemia cell line P388ADR, and the data are summarized in Table IV.

The subject of experiment [2] is human breast cancer cell line MDAMB435. Put plainly: Inhibition of cell proliferation (GI50) in MDAMB435 cells. The procedure:
as §1, §2, §3

Experiment [3] concerns human breast cancer cell line MX-1. Put plainly: Inhibition of cell proliferation (GI50) in MX-1 cells. The conditions noted are these: MX1 cells. Here is the method: as §1, §2, §3
The subject of experiment [4] is human Burkitt's lymphoma cell line Namalwa. Put plainly: Caspase cascade activation in Namalwa cells. Particulars: Burkitts lymphoma cell, 48 h, read-out: Caspase Activation Potency EC50 Namalwa.
The test system of experiment [5] is human B cell lymphoblastoid cell line Ramos. Put plainly: Caspase cascade activation in Ramos cells. Particulars: 48 h, read-out: Caspase Activation Potency EC50 Ramos.
The test system of experiment [6] is human colon carcinoma cell line HCT116. Put plainly: Caspase cascade activation in HCT116 cells. Particulars: Homo sapiens, HCT-116, 48 h, read-out: Caspase activation Potency EC50 HCT116 (48 h). In short, it runs like this: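 Cells were exposed to compound at 0.016 to 10 μM final for 24 h or 48 h at 37 °C. They were then lysed with 14 μM N-(Ac-DEVD)-N′-ethoxycarbonyl-R110 in lysolecithin/DTT/PIPES buffer pH 7.2 for 3 h at room temperature (ex 485/em 530 nm). EC50 came from a sigmoidal fit of net RFU relative to untreated control.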

The test system of experiment [7] is human sarcoma cell line MES-SA. Put plainly: Inhibition of cell proliferation (GI50) in MES-SA cells. The conditions noted are these: Table IV, read-out: GI50 in Multi-Cancer Cells MES-SA. Here is the method:
as §1, §2, §3, §4

The subject of experiment [8] is multi-drug resistant (MDR) human sarcoma cell line MES-SA/ADR. Put plainly: Inhibition of cell proliferation (GI50) in MES-SA/ADR cells. The conditions noted are these: Table IV, read-out: GI50 in Multi-Cancer Cells MES-SA/ADR. The procedure:
as §1, §2, §3, §4

For experiment [9], the system named is human colon cancer cell line HT29. Put plainly: Inhibition of cell proliferation (GI50) in HT29 cells. Particulars: HT-29, Table III, 48 h. Here is the method: as §1, §2, §3
The mark [10] stands for this setting: MDA-MB-435, Table IV, read-out: GI50 in Multi-Cancer Cells MDAMB435.
Where [11] appears, read: Table IV, read-out: GI50 in Multi-Cancer Cells MX1.

SMILES strings stand for the structures. Counter-ions that a name gives are not always drawn. Like-named read-outs stand apart in the source and are kept apart here.

In the case of `COc1cc(Nc2ncnc3ccsc23)cc(OC)c1` [Example 12, N-(3,5-Dimethoxyphenyl)thieno[3,2-d]pyrimidin-4-amine hydrochloride], the GI50 in experiment [1] is 706 nM; in experiment [2] (setting [10]), 105 nM; in experiment [3] (setting [11]), 17 nM; in experiment [7], 364 nM; in experiment [8], 1200 nM. Besides, the EC50 in experiment [4] stood at 356 nM; in experiment [5] it was 582 nM; in experiment [6], 279 nM.
Take `COc1ccc(OC)c(Nc2ncnc3ccsc23)c1` [Example 2, N-(2,5-Dimethoxyphenyl)thieno[3,2-d]pyrimidin-4-amine]: the GI50 was 3630 nM in experiment [9]; 2100 nM in experiment [1]; 756 nM in [2] (MDA-MB-435, Table III, 48 h, read-out: GI50 in Cancer Cells MDAMB435); 1070 nM in [2] (setting [10]); 300 nM in experiment [3] (Table III, 48 h, read-out: GI50 in Cancer Cells MX1); 800 nM in experiment [3] (setting [11]). Moreover, the GI50 came out at 5190 nM in [7] and 7260 nM in [8]. The EC50 in [6] came to 5000 nM.

What is called EC50 is the midpoint of the concentration-response curve.

(Values after patent publication US20070099877A1, “N-aryl-thienopyrimidin-4-amines and analogs as activators of caspases and inducers of apoptosis and the use thereof” (Cytovia, Inc., priority 2005, published 2007).)
